Experimental data: patent publication US20230365592A1 (Agios Pharmaceuticals, Inc., priority 2022, published 2023)

target: T1, human PAH with the R408W mutation (Homo sapiens, UniProt P00439, R408W); test: Cell Based Phenylalanine Flux Assay; settings: A375 cells expressing human R408W PAH; 24 hrs compound incubation; 13C-Tyrosine by LC-MS; average where tested multiple times; read-out: AC50;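 further: after compound treatment, cells received sepiapterin plus isotope-labelled Phenylalanine for 4 hours, then labelled Tyrosine in the medium was quantified, 10-point 2-fold dilution series run in duplicate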
T1 construct: expressed in transfected cells
T1 sequence (P00439 1-452 R408W): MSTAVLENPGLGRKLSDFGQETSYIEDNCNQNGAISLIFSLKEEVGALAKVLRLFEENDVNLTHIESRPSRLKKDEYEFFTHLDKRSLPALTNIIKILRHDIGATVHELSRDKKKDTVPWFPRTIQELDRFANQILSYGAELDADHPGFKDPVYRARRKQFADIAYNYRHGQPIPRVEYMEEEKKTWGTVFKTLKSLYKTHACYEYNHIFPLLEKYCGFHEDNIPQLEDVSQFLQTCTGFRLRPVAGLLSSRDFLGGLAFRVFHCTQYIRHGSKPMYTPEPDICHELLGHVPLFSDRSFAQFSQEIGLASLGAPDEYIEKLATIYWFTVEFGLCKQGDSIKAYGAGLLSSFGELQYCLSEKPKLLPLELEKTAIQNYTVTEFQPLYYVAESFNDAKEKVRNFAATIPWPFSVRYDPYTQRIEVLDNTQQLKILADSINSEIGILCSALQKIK

AC50 [nM]	Structure (SMILES)
500 to 1000	O=C(c1cnn2ccccc12)N1CCc2[nH]cnc2[C@H]1c1cc2ccccn2n1 [Example 600, (S)-(4-(pyrazolo[1,5-a]pyridin-2-yl)-6,7-dihydro-1H-imidazo[4,5-c]pyridin-5(4H)-yl)(pyrazolo[1,5-a]pyridin-3-yl)methanone]
> 5000	O=C(c1cnn2ccccc12)N1CCc2[nH]cnc2[C@@H]1c1cc2ccccn2n1 [Example 601, (R)-(4-(pyrazolo[1,5-a]pyridin-2-yl)-6,7-dihydro-1H-imidazo[4,5-c]pyridin-5(4H)-yl)(pyrazolo[1,5-a]pyridin-3-yl)methanone]
< 500	O=C(c1cncs1)N1CCc2[nH]cnc2[C@H]1c1cc2ccccn2n1 [Example 602, (S)-(4-(pyrazolo[1,5-a]pyridin-2-yl)-6,7-dihydro-1H-imidazo[4,5-c]pyridin-5(4H)-yl)(thiazol-5-yl)methanone]
1000 to 5000	O=C(c1cncs1)N1CCc2[nH]cnc2[C@@H]1c1cc2ccccn2n1 [Example 603, (R)-(4-(pyrazolo[1,5-a]pyridin-2-yl)-6,7-dihydro-1H-imidazo[4,5-c]pyridin-5(4H)-yl)(thiazol-5-yl)methanone]
< 500	Cc1ncoc1C(=O)N1CCc2[nH]cnc2[C@H]1c1cc2ccccn2n1 [Example 606, (S)-(4-methyloxazol-5-yl)(4-(pyrazolo[1,5-a]pyridin-2-yl)-6,7-dihydro-1H-imidazo[4,5-c]pyridin-5(4H)-yl)methanone]
> 5000	Cc1ncoc1C(=O)N1CCc2[nH]cnc2[C@@H]1c1cc2ccccn2n1 [Example 607, (R)-(4-methyloxazol-5-yl)(4-(pyrazolo[1,5-a]pyridin-2-yl)-6,7-dihydro-1H-imidazo[4,5-c]pyridin-5(4H)-yl)methanone]
1000 to 5000	O=C(Cc1nc(C(F)(F)F)cs1)N1CCc2[nH]cnc2[C@H]1c1cc2ccccn2n1 [Example 608, (S)-1-(4-(pyrazolo[1,5-a]pyridin-2-yl)-6,7-dihydro-1H-imidazo[4,5-c]pyridin-5(4H)-yl)-2-(4-(trifluoromethyl)thiazol-2-yl)ethanone]
> 5000	O=C(Cc1nc(C(F)(F)F)cs1)N1CCc2[nH]cnc2[C@@H]1c1cc2ccccn2n1 [Example 609, (R)-1-(4-(pyrazolo[1,5-a]pyridin-2-yl)-6,7-dihydro-1H-imidazo[4,5-c]pyridin-5(4H)-yl)-2-(4-(trifluoromethyl)thiazol-2-yl)ethanone]
< 500	O=C(c1ocnc1C(F)(F)F)N1CCc2[nH]cnc2[C@H]1c1cc2ccccn2n1 [Example 610, (S)-(4-(pyrazolo[1,5-a]pyridin-2-yl)-6,7-dihydro-1H-imidazo[4,5-c]pyridin-5(4H)-yl)(4-(trifluoromethyl)oxazol-5-yl)methanone]
1000 to 5000	O=C(c1ocnc1C(F)(F)F)N1CCc2[nH]cnc2[C@@H]1c1cc2ccccn2n1 [Example 611, (R)-(4-(pyrazolo[1,5-a]pyridin-2-yl)-6,7-dihydro-1H-imidazo[4,5-c]pyridin-5(4H)-yl)(4-(trifluoromethyl)oxazol-5-yl)methanone]
< 500	CC(F)(F)c1ncc(C(=O)N2CCc3[nH]cnc3[C@H]2c2cc3ccccn3n2)s1 [Example 612, (S)-(2-(1,1-difluoroethyl)thiazol-5-yl)(4-(pyrazolo[1,5-a]pyridin-2-yl)-6,7-dihydro-1H-imidazo[4,5-c]pyridin-5(4H)-yl)methanone]
< 500	O=C(c1ocnc1C1CC1)N1CCc2[nH]cnc2[C@H]1c1cc2ccccn2n1 [Example 618, (S)-(4-cyclopropyloxazol-5-yl)(4-(pyrazolo[1,5-a]pyridin-2-yl)-6,7-dihydro-1H-imidazo[4,5-c]pyridin-5(4H)-yl)methanone]
1000 to 5000	O=C(c1ocnc1C1CC1)N1CCc2[nH]cnc2[C@@H]1c1cc2ccccn2n1 [Example 619, (R)-(4-cyclopropyloxazol-5-yl)(4-(pyrazolo[1,5-a]pyridin-2-yl)-6,7-dihydro-1H-imidazo[4,5-c]pyridin-5(4H)-yl)methanone]

The next lines start with the compound.

Structure (SMILES)	AC50 [nM]
O=C(c1nnc(-c2ccccn2)o1)N1CCc2[nH]cnc2[C@@H]1c1cc2ccccn2n1 [Example 604, (R)-(4-(pyrazolo[1,5-a]pyridin-2-yl)-6,7-dihydro-1H-imidazo[4,5-c]pyridin-5(4H)-yl)(5-(pyridin-2-yl)-1,3,4-oxadiazol-2-yl)methanone]	> 5000
O=C(c1nnc(-c2ccccn2)o1)N1CCc2[nH]cnc2[C@H]1c1cc2ccccn2n1 [Example 605, (S)-(4-(pyrazolo[1,5-a]pyridin-2-yl)-6,7-dihydro-1H-imidazo[4,5-c]pyridin-5(4H)-yl)(5-(pyridin-2-yl)-1,3,4-oxadiazol-2-yl)methanone]	500 to 1000
O=C(CC1CC1)N1CCc2[nH]cnc2[C@H]1c1cc2ccccn2n1 [Example 614, (S)-2-cyclopropyl-1-(4-(pyrazolo[1,5-a]pyridin-2-yl)-6,7-dihydro-1H-imidazo[4,5-c]pyridin-5(4H)-yl)ethanone]	< 500
O=C(CC1CC1)N1CCc2[nH]cnc2[C@@H]1c1cc2ccccn2n1 [Example 615, (R)-2-cyclopropyl-1-(4-(pyrazolo[1,5-a]pyridin-2-yl)-6,7-dihydro-1H-imidazo[4,5-c]pyridin-5(4H)-yl)ethanone]	1000 to 5000
O=C(c1nnc(-c2ncccc2F)o1)N1CCc2[nH]cnc2[C@H]1c1cc2ccccn2n1 [Example 616, (S)-(5-(3-fluoropyridin-2-yl)-1,3,4-oxadiazol-2-yl)(4-(pyrazolo[1,5-a]pyridin-2-yl)-6,7-dihydro-1H-imidazo[4,5-c)pyridin-5(4H)-yl)methanone]	500 to 1000
O=C(c1nnc(-c2ncccc2F)o1)N1CCc2[nH]cnc2[C@@H]1c1cc2ccccn2n1 [Example 617, (R)-(5-(3-fluoropyridin-2-yl)-1,3,4-oxadiazol-2-yl)(4-(pyrazolo[1,5-a]pyridin-2-yl)-6,7-dihydro-1H-imidazo[4,5-c]pyridin-5(4H)-yl)methanone]	> 5000
O=C(c1nnc(C2CC2)o1)N1CCc2[nH]cnc2[C@H]1c1cc2ccccn2n1 [Example 620, (S)-(5-cyclopropyl-1,3,4-oxadiazol-2-yl)(4-(pyrazolo[1,5-a]pyridin-2-yl)-6,7-dihydro-1H-imidazo[4,5-c]pyridin-5(4H)-yl)methanone]	1000 to 5000
O=C(c1nnc(C2CC2)o1)N1CCc2[nH]cnc2[C@@H]1c1cc2ccccn2n1 [Example 621, (R)-(5-cyclopropyl-1,3,4-oxadiazol-2-yl)(4-(pyrazolo[1,5-a]pyridin-2-yl)-6,7-dihydro-1H-imidazo[4,5-c]pyridin-5(4H)-yl)methanone]	> 5000
O=C(c1oc(-c2ccccn2)nc1C1CC1)N1CCc2[nH]cnc2[C@@H]1c1cc2ccccn2n1 [Example 623, (R)-(4-cyclopropyl-2-(pyridin-2-yl)oxazol-5-yl)(4-(pyrazolo[1,5-a]pyridin-2-yl)-6,7-dihydro-1H-imidazo[4,5-c]pyridin-5(4H)-yl)methanone]	1000 to 5000
CC(C)(O)c1nc(C2CC2)c(C(=O)N2CCc3[nH]cnc3[C@H]2c2cc3ccccn3n2)o1 [Example 624, (S)-(4-cyclopropyl-2-(2-hydroxypropan-2-yl)oxazol-5-yl)(4-(pyrazolo[1,5-a]pyridin-2-yl)-6,7-dihydro-1H-imidazo[4,5-c]pyridin-5(4H)-yl)methanone]	1000 to 5000
